Source: ChEMBL document CHEMBL2331488, “Biotransformation of LASSBio-579 and pharmacological evaluation of p-hydroxylated metabolite a N-phenylpiperazine antipsychotic lead compound” (Eur J Med Chem, 2013)

Assays:
[1] = target: Muscarinic acetylcholine receptor; experiment: Displacement of [3H]-QNB from muscarinic receptor in Wistar rat brain membrane after 60 mins by liquid scintillation counting; type: cell membranes
[2] = target: T1, Alpha-1B adrenergic receptor (Rattus norvegicus, UniProt P15823); experiment: Displacement of [3H]-prazosin from alpha1B adrenergic receptor in Wistar rat liver membrane after 45 mins by liquid scintillation counting; type: cell membranes
T1 sequence (P15823 whole entry): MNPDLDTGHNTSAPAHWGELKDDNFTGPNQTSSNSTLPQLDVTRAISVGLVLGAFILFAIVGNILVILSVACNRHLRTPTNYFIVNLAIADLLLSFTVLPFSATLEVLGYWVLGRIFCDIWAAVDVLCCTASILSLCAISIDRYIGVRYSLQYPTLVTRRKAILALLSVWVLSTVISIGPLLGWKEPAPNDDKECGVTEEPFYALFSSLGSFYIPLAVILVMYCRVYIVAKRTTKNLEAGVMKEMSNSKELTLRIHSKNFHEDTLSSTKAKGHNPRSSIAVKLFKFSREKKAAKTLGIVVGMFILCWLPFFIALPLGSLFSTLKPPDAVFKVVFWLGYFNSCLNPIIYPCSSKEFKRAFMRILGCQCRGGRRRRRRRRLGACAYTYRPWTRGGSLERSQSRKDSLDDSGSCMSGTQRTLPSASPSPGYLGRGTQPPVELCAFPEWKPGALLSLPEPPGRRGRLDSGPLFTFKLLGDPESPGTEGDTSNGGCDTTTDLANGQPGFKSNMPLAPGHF

[3] = target: T2, Alpha-2A adrenergic receptor (Rattus norvegicus, UniProt P22909); experiment: Displacement of [3H]-RX821002 from alpha2A adrenergic receptor in Wistar rat cortical membrane after 45 mins by liquid scintillation counting; type: cell membranes
T2 sequence (P22909 whole entry): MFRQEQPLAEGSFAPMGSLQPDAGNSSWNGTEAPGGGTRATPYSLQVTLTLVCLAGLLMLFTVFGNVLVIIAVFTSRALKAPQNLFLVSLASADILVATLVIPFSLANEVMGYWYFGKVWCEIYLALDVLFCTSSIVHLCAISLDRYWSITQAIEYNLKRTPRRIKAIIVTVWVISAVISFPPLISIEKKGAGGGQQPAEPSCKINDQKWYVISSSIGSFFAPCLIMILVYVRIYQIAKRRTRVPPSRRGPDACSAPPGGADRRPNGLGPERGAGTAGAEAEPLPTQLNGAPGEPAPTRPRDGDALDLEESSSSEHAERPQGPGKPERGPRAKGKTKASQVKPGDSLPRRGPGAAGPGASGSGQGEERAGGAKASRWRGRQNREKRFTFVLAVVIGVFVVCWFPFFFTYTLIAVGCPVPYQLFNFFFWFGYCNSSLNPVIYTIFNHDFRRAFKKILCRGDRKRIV

[4] = target: T3, 5-hydroxytryptamine receptor 2C (Homo sapiens, UniProt P28335); experiment: Displacement of [3H]-mesulergine from human 5HT2C receptor after 60 mins by liquid scintillation counting
T3 sequence (P28335 whole entry): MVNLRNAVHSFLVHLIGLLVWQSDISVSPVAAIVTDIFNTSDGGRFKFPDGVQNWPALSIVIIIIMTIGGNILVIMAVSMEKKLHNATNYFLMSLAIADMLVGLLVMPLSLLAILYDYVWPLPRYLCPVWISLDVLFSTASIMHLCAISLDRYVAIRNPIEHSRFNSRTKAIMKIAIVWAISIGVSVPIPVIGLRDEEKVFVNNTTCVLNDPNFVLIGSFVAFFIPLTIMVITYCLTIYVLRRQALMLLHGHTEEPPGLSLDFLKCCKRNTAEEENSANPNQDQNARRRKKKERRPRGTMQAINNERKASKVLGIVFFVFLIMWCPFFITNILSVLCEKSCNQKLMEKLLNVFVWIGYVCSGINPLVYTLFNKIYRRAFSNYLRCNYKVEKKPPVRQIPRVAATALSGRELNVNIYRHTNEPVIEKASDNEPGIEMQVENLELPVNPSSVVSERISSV

[5] = target: T4, 5-hydroxytryptamine receptor 1A (Rattus norvegicus, UniProt P19327); experiment: Displacement of [3H]-OH-8-DPAT from 5HT1A receptor in Wistar rat hippocampal membrane after 15 mins by liquid scintillation counting; type: cell membranes, Hippocampus
T4 sequence (P19327 whole entry): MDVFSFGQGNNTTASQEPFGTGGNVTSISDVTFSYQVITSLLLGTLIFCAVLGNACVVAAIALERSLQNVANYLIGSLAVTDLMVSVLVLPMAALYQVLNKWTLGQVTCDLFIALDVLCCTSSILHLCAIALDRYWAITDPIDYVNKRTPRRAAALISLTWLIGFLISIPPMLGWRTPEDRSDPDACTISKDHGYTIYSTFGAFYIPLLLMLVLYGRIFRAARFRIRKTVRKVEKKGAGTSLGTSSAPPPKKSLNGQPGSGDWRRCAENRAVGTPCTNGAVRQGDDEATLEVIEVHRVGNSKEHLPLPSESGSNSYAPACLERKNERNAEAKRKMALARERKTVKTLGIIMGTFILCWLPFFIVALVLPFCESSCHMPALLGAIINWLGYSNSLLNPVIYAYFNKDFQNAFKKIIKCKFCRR

[6] = target: 5-hydroxytryptamine receptor 2A (Rattus norvegicus, UniProt P14842); experiment: Displacement of [3H]-ketanserin from 5HT2A receptor in Wistar rat cortical membrane after 15 mins by liquid scintillation counting; type: cell membranes
D(4) dopamine receptor = target: T5, D(4) dopamine receptor (Homo sapiens, UniProt P21917); experiment: Displacement of [3H]-YM-09151-2 from human D4 dopamine receptor after 120 mins by liquid scintillation counting
T5 sequence (P21917 whole entry): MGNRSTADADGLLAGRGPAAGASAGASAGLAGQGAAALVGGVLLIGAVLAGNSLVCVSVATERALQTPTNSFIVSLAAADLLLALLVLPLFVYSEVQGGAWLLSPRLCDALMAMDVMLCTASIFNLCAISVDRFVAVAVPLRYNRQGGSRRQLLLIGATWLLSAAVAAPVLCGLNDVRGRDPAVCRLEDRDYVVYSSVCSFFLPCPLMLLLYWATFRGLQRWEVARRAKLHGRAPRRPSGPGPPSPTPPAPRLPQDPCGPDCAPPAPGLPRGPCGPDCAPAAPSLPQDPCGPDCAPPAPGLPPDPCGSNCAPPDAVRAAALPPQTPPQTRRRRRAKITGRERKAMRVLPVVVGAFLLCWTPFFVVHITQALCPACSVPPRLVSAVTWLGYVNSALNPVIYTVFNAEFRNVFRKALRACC

D(2) dopamine receptor = D(2) dopamine receptor (Rattus norvegicus, UniProt P61169); experiment: Displacement of [3H]-YM-09151-2 from D2 dopamine receptor in Wistar rat brain striatal membrane after 60 mins by liquid scintillation counting; type: cell membranes, Striatum
Plasma = experiment: Drug metabolism in Wistar rat plasma assessed as p-hydroxylated metabolite level at 50 mg/kg, ip after 24 hrs; type: ADME, organism-based; parameters: dose 50 mg/kg, route intraperitoneal; conditions: in vivo

5-hydroxytryptamine receptor 2A, sequence (P14842 whole entry): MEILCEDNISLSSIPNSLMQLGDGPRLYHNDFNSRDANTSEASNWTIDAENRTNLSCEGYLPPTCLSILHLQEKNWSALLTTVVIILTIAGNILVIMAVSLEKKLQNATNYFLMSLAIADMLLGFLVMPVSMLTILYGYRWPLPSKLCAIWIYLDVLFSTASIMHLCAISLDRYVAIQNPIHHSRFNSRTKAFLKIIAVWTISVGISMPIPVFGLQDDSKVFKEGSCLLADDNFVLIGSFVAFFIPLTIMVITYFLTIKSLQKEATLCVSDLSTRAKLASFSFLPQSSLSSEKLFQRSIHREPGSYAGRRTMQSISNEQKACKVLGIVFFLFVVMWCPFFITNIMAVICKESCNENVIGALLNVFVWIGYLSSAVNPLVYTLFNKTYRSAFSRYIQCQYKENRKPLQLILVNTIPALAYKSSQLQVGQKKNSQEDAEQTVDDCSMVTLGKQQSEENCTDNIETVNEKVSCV
D(2) dopamine receptor, sequence (P61169 whole entry): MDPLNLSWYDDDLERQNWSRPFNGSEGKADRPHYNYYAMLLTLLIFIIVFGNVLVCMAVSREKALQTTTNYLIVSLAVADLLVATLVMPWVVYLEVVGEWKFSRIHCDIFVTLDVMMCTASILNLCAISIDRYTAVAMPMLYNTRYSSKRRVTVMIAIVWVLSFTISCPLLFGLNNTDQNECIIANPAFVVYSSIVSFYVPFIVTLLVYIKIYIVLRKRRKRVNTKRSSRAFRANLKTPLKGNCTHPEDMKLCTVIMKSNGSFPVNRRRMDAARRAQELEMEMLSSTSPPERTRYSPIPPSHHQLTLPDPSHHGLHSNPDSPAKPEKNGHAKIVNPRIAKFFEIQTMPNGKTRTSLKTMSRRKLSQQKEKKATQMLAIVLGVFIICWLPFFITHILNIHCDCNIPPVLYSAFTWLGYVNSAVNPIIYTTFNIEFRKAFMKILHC

Row | Drug metabolism (Plasma) | SMILES | Ki [1] [µM] | Ki [2] [µM] | Ki [3] [µM] | Ki [4] [µM] | Ki [5] [µM] | Ki [6] [µM] | Ki (D(4) dopamine receptor) [µM] | Ki (D(2) dopamine receptor) [µM]
1 | Active | Clc1ccc(-n2cc(CN3CCN(c4ccccc4)CC3)cn2)cc1 | > 30 | 3 | 2.49 | 8.44 | 0.21 | 6.82 | 0.17 | 0.38
2 |  | Oc1ccc(N2CCN(Cc3cnn(-c4ccc(Cl)cc4)c3)CC2)cc1 | > 30 | 1.15 | 6.45 | 12.3 | 5.87 | 8.22 | 0.034 | 0.53
